Data: patent US20220160762A1, “ENGINEERED IMMUNE CELLS” (NATIONAL UNIVERSITY OF SINGAPORE, priority 2019, published 2022)

Key:
CAR-Jurkat = test: T cell stimulation assay with kinase inhibitor, IL-2 ELISA readout; format: cell-based, human; settings: for IC50: Homo sapiens, T-cell, CAR-Jurkat stimulated with CHO-L2, 18 hrs, read-out: IC50 of inhibitor on IL-2 production
Description: (§1) Artificial antigen presenting CHO cells (APC-CHO) were seeded onto a 96 well flat plate at 2-3×10^4 per well one day before. For APC-CHO requiring peptide pulsing, peptide was added at 4 uM for 3 hrs, and then washed away before CAR-T or TCR-T cells were added. Each CAR-T cell or TCR T cell sample was counted and suspended at a concentration of 10^6 per ml in culturing RPMI medium. 200 ul per well of suspended cell solution was then added into APC-CHO pre-seeded plate. For inhibitor experiments, inhibitor was added accordingly into the cell mixture. Technical triplicates were performed for all experiments. The cells were incubated at 37° C., 5% CO2 for 18 hrs. After incubation, supernatant was collected for human IL-2 ELISA assay, which was performed according to the manufacturer's protocol (Invitrogen). The T cell pellets were resuspended for surface staining or used for another round of stimulation by repeating the method described above.

TCR-Jurkat = test: as above; format: cell-based; settings: Homo sapiens, TCR-Jurkat stimulated with CHO-L2, 18 hrs, read-out: IC50 of inhibitor on IL-2 production
Description: as §1

CAR-Jcam = test: T cell stimulation assay with SFK inhibitor, IL-2 ELISA readout; format: cell-based, human; settings: CAR-Jcam (LCK-deficient)
Description: as §1

Structure (SMILES) | IC50 (CAR-Jurkat) [µM] | IC50 (TCR-Jurkat) [µM] | IL-2 production after inhibitor was added (CAR-Jurkat; CAR-Jurkat) | IL-2 production after inhibitor was added (CAR-Jcam)
COc1cc(-c2nn([C@H]3CC[C@H](N4CCN(C(C)=O)CC4)CC3)c3ncnc(N)c23)ccc1NC(=O)c1cc2ccccc2n1C [A770041] | 0.047 | 0.0066 |  | 
CC(C)(C)n1nc(-c2ccc(Cl)cc2)c2c(N)ncnc21 [PP2] |  |  | entirely quenched | entirely quenched
CN(C)S(=O)(=O)c1ccc2c(c1)/C(=C/c1cc3c([nH]1)CCCC3)C(=O)N2 [SU6656] | 3.77 | 5.58 |  | 
